Test results from patent US11382929B2, “Compositions and methods to treat disease” (REGENTS OF THE UNIVERSITY OF MINNESOTA, priority 2019, dated 2022).
“Also recorded” adds a separate entry of the source.

Legend:
[1] = system: erythrocytes (RBC); assay: Hemolysis; assay type: cell-based, mouse; details: complex of the anionic polymer with PAHM, data not shown
[2] = Particle size of complexes by dynamic light scattering; assay type: physicochemical; details: complex of the anionic polymer with PAHM
Experimental: Heparin (sodium salt) was mixed with PAHM in 20 mM HEPES buffer (pH 7.4) and incubated for 30 minutes at room temperature. The charge ratio of heparin and PAHM was adjusted based on the assumption that one repeating unit of PAHM (Mw 325.88) bears 1 mole of positive charge (approximately the same number of primary amino groups) and that one repeating unit of heparin (Mw 1471) carries 8 moles of negative charges (approximately the number of carboxylate and sulfate groups combined). The final PAHM concentration was kept constant as 0.1 mg/mL. To determine the average particle size of the nano-complexes, the heparin/PAHM mixtures were diluted 20 times to a final volume of 2 mL in HEPES buffer. The average hydrodynamic diameter (or particle size) in HEPES buffer (20 mM) at 25° C. were determined using a ZetaPlus Particle Analyzer (Brookhaven Instruments Corporation, Holtsville, N.Y.; 27 mW laser; 658 nm incident beam, 90° scattering angle). Nano-complexes with heparin/PAHM charge ratios ranging from 1 to 32 were prepared as described above and measured by DLS.

[3] = system: AsPC-1 cells; assay: PAHM+Dox cytotoxicity assay (MTT); assay type: cell-based, human; details: AsPC-1, PAHM and Dox used in combination
Experimental: AsPC-1 or EMT6 cells were plated at 5000 cells/well (in 100 μL phenol red free medium) in 96-well plates. After culturing overnight (˜20 h), the medium was removed, and 100 μL medium containing various concentrations of PAHM and/or Dox was added to the cells. AsPC-1 cells were exposed to 1-100 μg/mL PAHM, 1-100 μg/mL Dox, or combinations of PAHM and Dox at a 1:1 ratio. EMT6 cells were exposed to 1-100 μg/mL PAHM, 0.02-2 μg/mL Dox, or combinations of PAHM and Dox at a 50:1 ratio. After 24 h exposure, the PAHM and Dox solutions were removed and 100 μL phenol red free medium was added to the cells. Cell viability was measured using an MTT assay. To each well, 10 μL MTT solution (12 mM in PBS) was added. After 4 h, 85 μL was removed from each well and formazan was solubilized in 100 μL dimethyl sulfoxide (DMSO). Absorbance was measured at 540 nm using a plate reader (BioTek™ Cytation™ 3 Cell Imaging Multi-Mode Reader controlled by Gen5™ All-In-One Microplate Reader Software). Data was analyzed in Microsoft Excel and Combination Indices and Dose Reduction Indices were calculated using CompuSyn (ComboSyn, Inc.)

[4] = system: EMT-6; assay: MTT cytotoxicity in 2D monolayer cell culture; assay type: cell-based; details: Mus musculus, EMT6
Experimental: (§1) Cytotoxicity in 2D Monolayer Cell Culture A mouse breast cancer cell line EMT-6 (ATCC, Manassas, Va.), two human breast cancer cell lines MDA-MB-231(ATCC) and MCF-7(ATCC), and one human glioma cancer cell line T98G(ATCC) were used in standard MTT assays (T. Mosmann, J Immunol Methods 65(1-2) (1983) 55-63) to test the cytotoxicity of PAHM polymers with different molecular weight and concentration after 24 and 48 h of treatment. D ox-HCl was also tested for comparison. All of the four cancer cell lines were incubated in corresponding cell culture media, EMT-6 media (DMEM high glucose, 10% FBS, 100 U/mL penicillin/streptomycin), T98G and MDA-MB-231 media (DMEM low glucose, 10% FBS, 100 U/mL penicillin/streptomycin), MCF-7 media (DMEM low glucose, 10% FBS, insulin, 100 U/mL penicillin/streptomycin), at 37° C., and a humidified atmosphere containing 5% CO2.
(§2) The MTT assay of PAHM polymers and Dox-HCl on EMT-6 cells exemplified the general experimental procedures. EMT-6 cells were seeded into 96-well plates at 5000 cells/well and cultured for 20 h in EMT-6 media at 5% CO2 and 37° C. Afterwards polymers of various molecular weight and concentrations were added to the cells and cultured for 24 h or 48 h. MTT in PBS (5 mg/mL, 20 μL) was then added to each well, reaching a final concentration of 0.5 mg/mL. After 4 h, unreacted MTT was removed by aspiration. The formazan crystals were dissolved in 150 μL of DMSO, and the absorbance was measured at 570 nm using a Bio-Tek Synergy HT plate reader. Cell viability was calculated by [absorbance of cells exposed to polymers]/[absorbance of cells cultured without polymers] in percentage. Cell images were captured before MTT was added using an Olympus IX70 […] microscope under polarized light.

[5] = system: T98G; assay: MTT cytotoxicity in 2D monolayer cell culture; assay type: cell-based; details: Homo sapiens, 24 h treatment
Experimental: as §1, §2

[6] = system: EMT-6 tumors; assay: In vivo EMT-6 tumor model, anti-tumor effect; design: species or system Balb/C mice; details: 8 mice per group, charge ratios 1, 4, 16 (low, med, high heparin dose) or equivalent heparin alone

## hyaluronic acid [HA]
[1]
  hemolytic activity of PAHM in complexed form: reduced, sometimes abolished
[2]
  particles formed with PAHM (size): nano to micro scale

## COc1cccc2c1C(=O)c1c(O)c3c(c(O)c1C2=O)C[C@@](O)(C(=O)CO)C[C@@H]3O[C@H]1C[C@H](N)[C@H](O)[C@H](C)O1 [Dox, doxorubicin]
[3]
  Dose Reduction Index (DRI): much higher; also recorded: All but one DRI values are above 1
[4]; EMT-6, 24 h treatment
  IC50: 10 to 15 µg/mL
[4]; EMT-6, 48 h
  IC50: 5 µg/mL
[5]
  IC50: > 40 µg/mL

## heparin
[6]
  tumor growth (tumor volume and weight): modest but insignificant effect on tumor growth
